# Reference: US20020052408A1, “Methods for protection of stratified squamous epithelium against injury by noxious substances and novel agents for use therefor” (priority 2000, published 2002)
# Key:
# [1] = tested on: rabbit esophageal epithelium; test: Ussing chamber method for assessing esophageal epithelial protection against acid injury (60 mM HCl, pH 1.6, decline in electrical resistance R); format: cell-based; details: for protection against acid injury after brief luminal exposure: 1 min exposure to 4 mM agent, multiple washouts over 4 hours, FIG. 5; for lowest protective dose: pH 1.6, 1 hour; for protective activity, Resistance Index (RI)=[(Ragent/Rcontrol)-1], RI >0.2 considered significant: 2, 4 and/or 8 mM for 15 min, 30 min and/or >30 min before 60 mM HCl pH 1.6 for 1 hour, N=1 tissue/dose, FIG. 9; for protective effect, single exposure: single 1 min exposure
# Text: Previously, a test system was developed in the Ussing chamber to identify and characterize agents with cytoprotective effects against acid injury to the tissue. Briefly, the esophageal epithelium is mounted in the Ussing chamber so that acid (or acid-pepsin) could be added to the luminal bath while monitoring changes in electrical resistance (R). The changes in R are an effective means to identify damage by acid or acid-pepsin since damage is heralded by an increase in paracellular permeability and this reflected by a decline in R. In effect, the ability of an agent or compound to prevent the acid-induced decline in R without altering luminal pH (which excludes protection being mediated by acid buffering or neutralization) is evidence for a cytoprotective effect, i.e. protection directly exerted by the agent or compound on the epithelium. Further, we previously established that the ability of an agent or compound to prevent the acid-induced decline in R in this Ussing chamber model of acid injury was an accurate predictor, and therefore surrogate marker, of its ability to protect rabbit esophageal epithelium against acid injury in vivo (U.S. Pat. Nos. 5,374,537 and 5,189,056).
# (§1) New Zealand white rabbits weighing between 8-9 lbs are sacrificed by administering an intravenous overdose of phenobarbital (60 mg/mL). The esophagus is excised, opened, and pinned mucosal surface down in a paraffin tray containing ice-Cold oxygenated normal Ringer's solution. The submucosa is grasped with hemostats, lifted up, and dissected free of the underlying mucosa with a scalpel. This process yields a sheet of tissue consisting of stratified squamous epithelium and a small amount of underlying connective tissue. From this tissue, four sections are cut and mounted as flat sheets between Lucite half-Chambers with an aperture of 1.13 cm^2 for measurements of potential difference (PD), short circuit current (Isc) and, from these values, calculation of transmucosal electrical resistance (R). Tissues are bathed with normal Ringer solution composed of the following (in mmol/L): Na 140; Cl 119.8; K 5.2; HCO3 25; Ca 1.2; Mg 1.2; HPO4 2.4; H2PO4 0.4; and 268 mOsm/kg water, with pH 7.5 when gassed with 95% O2/5% CO2 at 37° C. Mucosal and serosal solutions are connected to calomel and Ag—AgCl electrodes with Ringer's-agar bridges for measurements of PD and automatic short-Circuiting of the tissue with a voltage clamp (World Precision Instruments Inc., Sarasota, Fla.). Tissues are monitored continuously in the open-circuit state except for 5-10 second periods when the Isc is read. Electrical resistance (R) was calculated using Ohm's Law from the open-circuit PD and Isc.
# To test the protective effect of an agent against acid injury to esophageal epithelium, 45 minutes after mounting (equilibration period), tissues paired by R had for one of the pair varying amounts of an agent added to the luminal bath while the other part of the pair received vehicle (normal Ringer solution) as control. After varying periods of exposure to the agent, 60 mM HCl was added to the luminal (mucosal) solution to reduce pH to 1.6; the pH was monitored and maintained throughout the 1 hr of exposure for all tissues to ensure uniform risk of injury. This negated any protective effect as being due to buffering by the agent. In some experiments the power of the protective effect of an agent was determined after varying periods of luminal exposure by washout prior to acid exposure, i.e. replacement of the luminal bath containing agent with normal Ringer Solution that contained only vehicle. R was then monitored before and during acidification with 60 mM HCl and the results for agent and controls presented as percent decline in R from pre-acidification values. […]
# [2] = tested on: rabbit esophageal epithelium; test: In vivo delivery of agent in drinking water, then Ussing chamber acid injury test (60 mM HCl, pH 1.6); details: for protective effect after in vivo delivery in drinking water: rabbit, acid on day 5
# Procedure: as §1
# (§2) New Zealand white rabbits weighing between 8-9 lbs were given 25 ml of water containing test agent or water alone (control) to drink once each morning on 4 consecutive days. Following consumption of the 25 ml of water, the rabbits had their normal water source restored and they ate and drank normally for the remainder of each day. Twenty-four hours after the last dose, the rabbits were sacrificed by administering an intravenous overdose of phenobarbital (60 mg/mL). The esophagus was excised and processed as above to test its ability to resist acid injury upon exposure to 60 mM HCl , pH 1.6, for 1 hr. Three sections of rabbit esophageal epithelium that had been exposed to test agent and three sections exposed to water alone (control) were mounted, equilibrated and then simultaneously exposed to acid on the same day without the operator being aware of which were treated and which were control sections of epithelium. Initial R values in all experiments were similar preacidification. […] Significance was taken as a difference in values of p<0.05.
# [3] = tested on: rabbit esophageal epithelium; test: In vivo delivery of agent in drinking water, then Ussing chamber acid-pepsin injury test (60 mM HCl, pH 1.6, 1 mg/ml pepsin); details: FIG. 12
# Procedure: as §2
# FIG. 12 is a graph showing the protective effect against an acid-pepsin mixture after in vivo delivery of CDDD-1193 in drinking water. A rabbit spontaneously drank 25 ml of water containing 0.6 mg (40 μM) or 0.06 mg (4 μM) CDDD-1193 once-a-day for 4 consecutive days or water alone. On day 5, the rabbits were sacrificed and three sections of esophageal epithelium mounted in Ussing chambers from each rabbit. After equilibration in Ringer solution, all tissues were acidified by luminal addition of 60 mM HCl , pH 1.6, containing 1 mg/ml pepsin, for 1 hour. Electrical resistance, R, was monitored and plotted as percent initial R (%) at the end of 1 hour of acid-pepsin exposure. […] N=3 tissues; * p<0.05 compared to controls.
# [4] = then 60 mM HCl pH 1.6 for 1 hour
# [5] = agent in luminal bath 30 min before and continuously during 60 mM HCl, R as % of initial R, FIG. 1, 2
structure (smiles),measurement,setting,value
"O=S(=O)(O)OCC(OS(=O)(=O)O)C(Oc1ccccc1)c1ccc(N=C=S)cc1 [CDDD-1192, Disodium (2S, 3R)-3-(4-isothiocyanatophenyl)-3-phenoxypropane-1,2-disulfate]",protection against acid injury after brief luminal exposure,[1]; [4],retain significant protection
same,lowest protective dose,"[1]; agent in luminal bath 30 min before and during 60 mM HCl, FIG. 3",0.004 mM
"O=S(=O)([O-])OCC(Oc1ccc(Cl)cc1S(=O)(=O)[O-])c1ccccc1.[Na+].[Na+] (centres unmarked) [CDDD-1188, 2-(4-Chloro-2-sulfophenoxy)-2-phenylethanesulfate, disodium salt]","protective activity, Resistance Index (RI)=[(Ragent/Rcontrol)-1], RI >0.2 considered significant",[1],may have significant protective activity
"CC(=O)Nc1ccc(C=Cc2ccc(N=C=S)cc2S(=O)(=O)O)c(S(=O)(=O)O)c1 [SITS, 4-acetamido-4′-isothiocyanatostilbene-2-2′-disulfonic acid, reference compound]",protective effect after in vivo delivery in drinking water,"[2]; 4 mM (50 mg in 25 ml water) once-a-day for 4 days, FIG. 11",significantly protective
same,duration of protective effects after the last dose,"[2]; 4 mM in drinking water once-a-day for 4 days, FIG. 11",at least 24 hrs
same,protection against acid injury after brief luminal exposure,[1]; [4],retain significant protection
same,lowest protective dose,[1]; [5],0.1 mM
"O=S(=O)(O)OC[C@H]1O[C@@](COS(=O)(=O)O)(O[C@H]2O[C@H](COS(=O)(=O)O)[C@@H](OS(=O)(=O)O)[C@H](OS(=O)(=O)O)[C@H]2OS(=O)(=O)O)[C@@H](OS(=O)(=O)O)[C@@H]1OS(=O)(=O)O [SOS, sucrose octasulfate, reference compound]",protection against acid injury after brief luminal exposure,[1]; [4],retain significant protection
same,lowest protective dose,[1]; [5],1 mM
"O=S(=O)(O)OC[C@@H](OS(=O)(=O)O)[C@@H](Oc1ccccc1)c1ccccc1.[Na].[Na] [CDDD-1187, (2R, 3S)-3-Phenoxy-3-phenylpropane-1,2-disulfate, disodium salt]","protective activity, Resistance Index (RI)=[(Ragent/Rcontrol)-1], RI >0.2 considered significant",[1],may have significant protective activity
"O=S(=O)(O)OC[C@H](OS(=O)(=O)O)[C@H](Oc1ccc(N=C=S)cc1)c1ccc(N=C=S)cc1.[Na].[Na] [CDDD-1193, Disodium (2S, 3R)-3-(4-isothiocyanophenoxy)-3-(4-isothiocyanatophenyl)propane-1,2-disulfate]",protective effect against acid-pepsin after in vivo delivery in drinking water,[3]; 4 μM (0.06 mg in 25 ml water) once-a-day for 4 days,significantly protective
same,protective effect against acid-pepsin after in vivo delivery in drinking water,[3]; 40 μM (0.6 mg in 25 ml water) once-a-day for 4 days,significantly protective
same,duration of protective effect against acid-pepsin after the last dose,[3]; 40 μM and 4 μM in drinking water once-a-day for 4 days,at least 24 hours
same,protective effect after in vivo delivery in drinking water,"[2]; 4 μM (0.06 mg in 25 ml water) once-a-day for 4 days, FIG. 10B",significantly protective
same,duration of protective effects after the last dose,"[2]; 4 μM in drinking water once-a-day for 4 days, FIG. 10B",at least 24 hrs
same,protective effect after in vivo delivery in drinking water,"[2]; 40 μM (0.6 mg in 25 ml water) once-a-day for 4 days, FIG. 10A",significantly protective
same,duration of protective effects after the last dose,"[2]; 40 μM in drinking water once-a-day for 4 days, FIG. 10A",at least 24 hrs
same,"protective effect, repeated exposures","[1]; 400 nM, 1 min every 5 min times ten exposures, then 60 mM HCl pH 1.6 for 1 hour, FIG. 7",protective
same,"protective effect, single exposure","[1]; 400 nM, then 60 mM HCl pH 1.6 for 1 hour, FIG. 7",little protection
same,"protective effect, repeated exposures","[1]; 1 μM, 1 min every 5 min times 5 or ten exposures, then 60 mM HCl pH 1.6 for 1 hour, FIG. 8",cumulative with repeated exposures
same,"protective effect, single exposure","[1]; 1 μM, then 60 mM HCl pH 1.6 for 1 hour, FIG. 8",modestly protective
same,protection against acid injury after brief luminal exposure,[1]; [4],retain significant protection
same,protective effect after brief luminal exposure,"[1]; 1 min exposure to 4 mM, multiple washouts over 8 hours, then 60 mM HCl pH 1.6 for 1 hour, FIG. 6",substantial
same,persistence of protective effect,"[1]; 1 min exposure to 4 mM, repeated washes before 60 mM HCl pH 1.6, FIG. 6",8 h
same,lowest protective dose,"[1]; agent in luminal bath 30 min before and during 60 mM HCl, FIG. 4",4e-05 mM
"O=S(=O)([O-])OCC(Oc1ccccc1)c1ccccc1.[Na+] (centres unmarked) [CDDD-1185, 2-Phenoxy-2-phenylethanesulfate, sodium salt]","protective activity, Resistance Index (RI)=[(Ragent/Rcontrol)-1], RI >0.2 considered significant",[1],may have significant protective activity
